Results from US20230210999A1, “TARGETED PROTEASE DEGRADATION (TED) PLATFORM” (EUBULUS BIOTHERAPEUTICS INC., priority 2020, published 2023).
pIC50: −log10 of the molar value.

Assays:
MV4;11 cells = test: Cell proliferation experiment (Alamar blue, 72 h), MV4;11; assay type: cell-based, human; conditions: Homo sapiens, MV4-11, 72 h, MV4;11 cells, 72 h; read-out: Inhibitory activity IC50 of tested compounds on MV4;11 cells
How it was run: (§1)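 IC50 values derive from a four-parameter logistic fit of Alamar blue fluorescence. Cells in logarithmic growth, plated in 96-well format, are treated for 72 h with compound diluted 5-fold serially, two wells per concentration.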

Hela cells = test: Cell proliferation experiment, Hela; assay type: cell-based; conditions: Homo sapiens, 72 h, read-out: Inhibitory activity IC50 of tested compounds on Hela cells
Protocol: (§2) Reagents: RPMI-1640 medium, McCoy's 5A medium, IMDM medium, MEM medium, L-15 medium, fetal bovine serum. Penicillin-Streptomycin double antibody, trypsin, etc., 2-mercaptoethanol, NEAA, pyruvate, etc.
(§3) The cells were cultured in conventional ways, and the cells should be passed at least 2 generations before plating. Cells at the logarithmic growth phase were collected, prepared into single cell suspensions and counted. The concentration of cells was adjusted to the desired concentration, and cells were inoculated into a 96-well cell culture plate at 100 μl per well. 100 μL of complete medium of the test compound were added to each well, set up 2 duplicate wells for each concentration, and diluted with a 5-fold gradient, and continued to culture for 72 h. All cells were subjected to IC50 test for corresponding samples. The experimental results are shown in Test Example 4.
(§4) The fluorescence intensity of each well was detected using the Alarm blue method, and IC50 was calculated.
(§5) IC50 was calculated according to the following formula:
(§6) Y=Max+(Min−Max)/[1+(X/IC50)×Slope]
(§7) wherein Min, Max and Slope represent the minimum, maximum and slope respectively.

HL-60 cells = test: Cell proliferation experiment, HL-60; assay type: cell-based; conditions: Homo sapiens, 72 h, read-out: Inhibitory activity IC50 of tested compounds on HL-60 cells
Protocol: as §2, §3, §4, §5, §6, §7

Daudi cells = test: Cell proliferation experiment, Daudi; assay type: cell-based, human; conditions: Homo sapiens, Daudi, 72 h, Daudi cells, 72 h; read-out: Inhibitory activity IC50 of tested compounds on Daudi cells
How it was run: as §1

NCIH82 cells = test: Cell proliferation experiment, NCI-H82; assay type: cell-based, human; conditions: Homo sapiens, NCI-H82, 72 h, NCIH82 cells, 72 h; read-out: Inhibitory activity IC50 of tested compounds on NCIH82 cells
How it was run: as §1

HT-29 cells = test: Cell proliferation experiment, HT-29; assay type: cell-based; conditions: Homo sapiens; HT-29 cells, 72 h; read-out: Inhibitory activity IC50 of tested compounds on HT-29 cells
How it was run: as §1

U-87MG cells = test: Cell proliferation experiment, U-87MG; assay type: cell-based; conditions: Homo sapiens; U-87MG cells, 72 h; read-out: Inhibitory activity IC50 of tested compounds on U-87MG cells
How it was run: as §1

MDA-MB-231 cells = test: Cell proliferation experiment, MDA-MB-231; assay type: cell-based, human; conditions: Homo sapiens, MDA-MB-231, 72 h, MDA-MB-231 cells, 72 h; read-out: Inhibitory activity IC50 of tested compounds on MDA-MB-231 cells
How it was run: as §1

THP-1 cells = test: Cell proliferation experiment, THP-1; assay type: cell-based; conditions: Homo sapiens, 72 h, read-out: Inhibitory activity IC50 of tested compounds on THP-1 cells
Protocol: as §2, §3, §4, §5, §6, §7

MOL4-4 cells = test: Cell proliferation experiment, MOL4-4; assay type: cell-based; conditions: Homo sapiens, 72 h, read-out: Inhibitory activity IC50 of tested compounds on MOL4-4 cells
Protocol: as §2, §3, §4, §5, §6, §7

HUVEC cells = test: Cell proliferation experiment, HUVEC; assay type: cell-based; conditions: Homo sapiens, 72 h, read-out: Inhibitory activity IC50 of tested compounds on HUVEC cells
Protocol: as §2, §3, §4, §5, §6, §7

With `CC[C@@H]1C(=O)N(C)c2cnc(Nc3ccc(C(=O)NCCCOCCOCCCN(C)CCC#Cc4cccc5c4CN(C4CCC(=O)NC4=O)C5=O)cc3OC)nc2N1C1CCCC1` (some centres unmarked) [Compound 883] the pIC50 (MV4;11 cells) was no less than 7.00, the pIC50 (Hela cells) was no less than 6.00 and the pIC50 (HL-60 cells) was no less than 6.00. For the same compound, the pIC50 (Daudi cells) was no less than 7.00, the pIC50 (NCIH82 cells) was no less than 6.00 and the pIC50 (HT-29 cells) was 6.00 to 6.52. It also gave a pIC50 (U-87MG cells) of no less than 7.00, a pIC50 (MDA-MB-231 cells) of no less than 6.30 and a pIC50 (THP-1 cells) of no less than 6.00. For the same compound, the pIC50 (MOL4-4 cells) was no less than 7.00 and the pIC50 (HUVEC cells) was no less than 6.00.
`CC[C@@H]1C(=O)N(C)c2cnc(Nc3ccc(C(=O)NCCCOCCNCCC#Cc4cccc5c4CN(C4CCC(=O)NC4=O)C5=O)cc3OC)nc2N1C1CCCC1` (some centres unmarked) [Compound 888] was tested, and the pIC50 (MV4;11 cells) was no less than 7.00, the pIC50 (Hela cells) was no less than 6.00 and the pIC50 (HL-60 cells) was no less than 6.00. The pIC50 (Daudi cells) was no less than 7.00, the pIC50 (NCIH82 cells) was no less than 6.00 and the pIC50 (HT-29 cells) was 6.00 to 6.52. The pIC50 (U-87MG cells) was 6.30 to 7.00, the pIC50 (MDA-MB-231 cells) was no less than 6.30 and the pIC50 (THP-1 cells) was no less than 6.00. For the same compound, the pIC50 (MOL4-4 cells) was no less than 7.00 and the pIC50 (HUVEC cells) was no less than 6.00.
Compound `CC[C@@H]1C(=O)N(C)c2cnc(Nc3ccc(C(=O)NCCCN(C)CCOCCCC#Cc4cccc5c4CN(C4CCC(=O)NC4=O)C5=O)cc3OC)nc2N1C1CCCC1` (some centres unmarked) [Compound 884] has a pIC50 (MV4;11 cells) of no less than 7.00, a pIC50 (Hela cells) of no less than 6.00 and a pIC50 (HL-60 cells) of no less than 6.00. The pIC50 (Daudi cells) was no less than 7.00, the pIC50 (NCIH82 cells) was no less than 6.00 and the pIC50 (HT-29 cells) was 6.00 to 6.52. The pIC50 (U-87MG cells) was no less than 7.00, the pIC50 (MDA-MB-231 cells) was no less than 6.30 and the pIC50 (THP-1 cells) was no less than 6.00. It also gave a pIC50 (MOL4-4 cells) of no less than 7.00 and a pIC50 (HUVEC cells) of no less than 6.00.
For `CC[C@@H]1C(=O)N(C)c2cnc(Nc3ccc(C(=O)NCCCOCCOCCNCCC#Cc4cccc5c4CN(C4CCC(=O)NC4=O)C5=O)cc3OC)nc2N1C1CCCC1` (some centres unmarked) [Compound 890], the pIC50 (MV4;11 cells) was no less than 7.00, the pIC50 (HL-60 cells) was no less than 6.00 and the pIC50 (Daudi cells) was no less than 7.00. For the same compound, the pIC50 (NCIH82 cells) was no less than 6.00, the pIC50 (HT-29 cells) was 6.00 to 6.52 and the pIC50 (U-87MG cells) was 6.30 to 7.00. It also gave a pIC50 (MDA-MB-231 cells) of no less than 6.30 and a pIC50 (HUVEC cells) of no less than 6.00.
`CC[C@@H]1C(=O)N(C)c2cnc(Nc3ccc(C(=O)NC4CCC(N5CCN(CCC#Cc6cccc7c6CN(C6CCC(=O)NC6=O)C7=O)CC5)CC4)cc3OC)nc2N1C1CCCC1` (some centres unmarked) [Compound 889] showed a pIC50 (MV4;11 cells) of no less than 7.00, a pIC50 (Hela cells) of no less than 6.00 and a pIC50 (HL-60 cells) of no less than 6.00. For the same compound, the pIC50 (Daudi cells) was no less than 7.00, the pIC50 (NCIH82 cells) was no less than 6.00 and the pIC50 (HT-29 cells) was no less than 6.52. The pIC50 (U-87MG cells) was no less than 7.00, the pIC50 (MDA-MB-231 cells) was no less than 6.30 and the pIC50 (THP-1 cells) was no less than 6.00. The pIC50 (MOL4-4 cells) was no less than 7.00 and the pIC50 (HUVEC cells) was no less than 6.00.
Compound `CC[C@@H]1C(=O)N(C)c2cnc(Nc3ccc(C(=O)NC4CCN(CCCOCCNCCC#Cc5cccc6c5CN(C5CCC(=O)NC5=O)C6=O)CC4)cc3OC)nc2N1C1CCCC1` (some centres unmarked) [Compound 895] has a pIC50 (MV4;11 cells) of no less than 7.00, a pIC50 (HL-60 cells) of no less than 6.00 and a pIC50 (Daudi cells) of 6.00 to 7.00. It also gave a pIC50 (NCIH82 cells) of no less than 6.00, a pIC50 (HT-29 cells) of 6.00 to 6.52 and a pIC50 (U-87MG cells) of 6.30 to 7.00.
For `CC[C@@H]1C(=O)N(C)c2cnc(Nc3ccc(C(=O)NCCCOCCNCCOCCC#Cc4cccc5c4CN(C4CCC(=O)NC4=O)C5=O)cc3OC)nc2N1C1CCCC1` (some centres unmarked) [Compound 893], the pIC50 (MV4;11 cells) was no less than 7.00, the pIC50 (Hela cells) was no less than 6.00 and the pIC50 (HL-60 cells) was no less than 6.00. For the same compound, the pIC50 (Daudi cells) was no less than 7.00, the pIC50 (NCIH82 cells) was no less than 6.00 and the pIC50 (HT-29 cells) was no less than 6.52. For the same compound, the pIC50 (U-87MG cells) was no less than 7.00, the pIC50 (MDA-MB-231 cells) was no less than 6.30 and the pIC50 (HUVEC cells) was no less than 6.00.
In the case of `CC[C@@H]1C(=O)N(C)c2cnc(Nc3ccc(C(=O)NCCCOCCCOCCNCCC#Cc4cccc5c4CN(C4CCC(=O)NC4=O)C5=O)cc3OC)nc2N1C1CCCC1` (some centres unmarked) [Compound 892], the pIC50 (MV4;11 cells) was no less than 7.00, the pIC50 (Hela cells) was no less than 6.00 and the pIC50 (HL-60 cells) was no less than 6.00. For the same compound, the pIC50 (Daudi cells) was 6.00 to 7.00, the pIC50 (NCIH82 cells) was no less than 6.00 and the pIC50 (HT-29 cells) was 6.00 to 6.52. It also gave a pIC50 (U-87MG cells) of no less than 7.00, a pIC50 (MDA-MB-231 cells) of no less than 6.30 and a pIC50 (HUVEC cells) of no less than 6.00.
`CC[C@@H]1C(=O)N(C)c2cnc(Nc3ccc(C(=O)NC4CCN(CCCOCCN(C)CCC#Cc5cccc6c5CN(C5CCC(=O)NC5=O)C6=O)CC4)cc3OC)nc2N1C1CCCC1` (some centres unmarked) [Compound 897] showed a pIC50 (MV4;11 cells) of no less than 7.00, a pIC50 (HL-60 cells) of no less than 6.00 and a pIC50 (Daudi cells) of 6.00 to 7.00. For the same compound, the pIC50 (NCIH82 cells) was no less than 6.00, the pIC50 (HT-29 cells) was no less than 6.52 and the pIC50 (U-87MG cells) was 6.30 to 7.00.
Work on `CC[C@@H]1C(=O)N(C)c2cnc(Nc3ccc(C(=O)NC4CCN(CCOCCNCCC#Cc5cccc6c5CN(C5CCC(=O)NC5=O)C6=O)CC4)cc3OC)nc2N1C1CCCC1` (some centres unmarked) [Compound 874] yielded a pIC50 (MV4;11 cells) of no less than 7.00, a pIC50 (HL-60 cells) of no less than 6.00 and a pIC50 (Daudi cells) of 6.00 to 7.00. For the same compound, the pIC50 (NCIH82 cells) was no less than 6.00, the pIC50 (HT-29 cells) was 6.00 to 6.52 and the pIC50 (U-87MG cells) was 6.30 to 7.00. It also gave a pIC50 (THP-1 cells) of no less than 6.00.
